Measured values from patent US10188690B2, “Use of Kaempferia parviflora wall. ex. baker extracts or flavone compound for preventing or treating muscle diseases, or improving muscle function” (AAT COSTECH CO., LTD., priority 2012, dated 2019).

How the values were obtained:
[1] = tested on: Wistar rats; experiment: Muscle mass in the TNF-α-induced myatrophy animal model; format: in vivo; settings: once daily for eight weeks, extract 500 mg/kg, flavones 300 mg/kg; for Calf muscle weight: TNF-α 100 ng/g for two weeks, TNF-α control 437 mg; for muscle weight compared to the control levels: TNF-α-induced myatrophy, p<0.01
Description: Five-week-old Wistar rats were acclimated for one week and myatrophy was induced by supplying TNF-α at the dose of 100 ng/g for two weeks. Afterwards, rats were randomly divided according to body weight into a total of 4 groups, each consisting of 8 rats. Each of the Kaempferia parviflora extract and flavone compounds was suspended in 0.25% carboxymethylcellulose and administered once daily for eight weeks at the dose of 500 mg/kg body weight for the Kaempferia parviflora extract, 300 mg/kg body weight for each of 5,7-dimethoxyflavone, 5,7,4′-trimethoxyflavone and 3,5,7,3′,4′-pentamethoxyflavone. The control group was administered with the same amount of 0.25% carboxymethylcellulose only as well as TNF-α.
After eight weeks of treatments, calf muscles were dissected out and weighed using microbalance (Mettler PE160, USA).

[2] = tested on: myoD; experiment: RT-PCR of myoD mRNA in differentiated L6 cells; format: cell-based; settings: 5,7-dimethoxyflavone 1 or 5 μM (FIG. 2), extract 1 or 10 μg/ml (FIG. 4), normalized by β-actin
[3] = tested on: p-mTOR; experiment: Western blot of p-mTOR protein in L6 cells; format: cell-based; settings: 5,7-dimethoxyflavone 1 or 5 μM (FIG. 3), extract 1 or 10 μg/ml (FIG. 5)
Description: (§1) Muscle cell-line L6 myoblast (American Type Culture Collection, Manassas, Va., USA) was cultured in DMEM (10% FBS, 100 U/mL penicillin, 100 µg/mL streptomycin). When the cell density reached approximately 80˜85%, differentiation was induced for six days by replacing the culture medium with DMEM growth medium supplemented with 2% FBS for further experiments. In order to evoke muscle reduction in the differentiated L6 cells, cells were treated with TNF-α for 24 hours followed by the treatment with 5,7-dimethoxyflavone prepared in Example 2-1 at different concentrations (1 or 5 μM). RT-PCR experiments were performed to examine the expression levels of atrogin-1 and MuRF1, major ligases involved in protein catabolism in the muscles. Total RNA was obtained from the differentiated cells using Trizol (Invitrogen, Carlsbad, Calif., USA) and subjected to reverse transcription as follows. Total RNA isolated as above was reverse-transcribed using reverse transcriptases. The following primers were used for RT-PCR experiments.
(§2) L6 cells were treated in the same manner as Experimental example 1, and were lysed with RIPA buffered solution containing a proteinase inhibitor cocktail. […] Protein bands were visualized using ECL western blotting detected reagents (Amersham, Tokyo, Japan). […]

[4] = tested on: PI3K; experiment: Western blot of PI3K protein in L6 cells; format: cell-based; settings: 5,7-dimethoxyflavone 1 or 5 μM (FIG. 3), extract 1 or 10 μg/ml (FIG. 5)
Description: as §1, §2

[5] = tested on: MuRF1; experiment: RT-PCR of MuRF1 mRNA in differentiated L6 cells treated with TNF-α; format: cell-based; settings: TNF-α 24 hours, then 5,7-dimethoxyflavone 1 or 5 μM, normalized by β-actin, FIG. 1
Description: as §1
(§3) Relative levels of mRNA for each gene was normalized by the value of β-actin.

[6] = tested on: p-Akt; experiment: Western blot of p-Akt protein in L6 cells; format: cell-based; settings: 5,7-dimethoxyflavone 1 or 5 μM (FIG. 3), extract 1 or 10 μg/ml (FIG. 5)
Description: as §1, §2

[7] = tested on: atrogin-1; experiment: RT-PCR of atrogin-1 mRNA in differentiated L6 cells treated with TNF-α; format: cell-based; settings: TNF-α 24 hours, then 5,7-dimethoxyflavone 1 or 5 μM, normalized by β-actin, FIG. 1
Description: as §1, §3

[8] = tested on: myogenin; experiment: RT-PCR of myogenin mRNA in differentiated L6 cells; format: cell-based; settings: 5,7-dimethoxyflavone 1 or 5 μM (FIG. 2), extract 1 or 10 μg/ml (FIG. 4), normalized by β-actin

Compound | Calf muscle weight [1] [mg] | muscle weight compared to the control levels [1] [%] | mRNA level of myoD [2] | protein level of p-mTOR [3] | protein level of PI3K [4] | mRNA level of MuRF1 [5] | protein level of p-AKT [6] | mRNA level of atrogin-1 [7] | mRNA level of myogenin [8]
COc1cc(OC)c2c(=O)c(OC)c(-c3ccc(OC)c(OC)c3)oc2c1 [3,5,7,3′,4′-pentamethoxyflavone] | 528 | 120 |  |  |  |  |  |  | 
COc1cc(OC)c2c(=O)cc(-c3ccccc3)oc2c1 [5,7-dimethoxyflavone] | 551 | 126 | increases | upregulate | upregulate | reduces | upregulate | reduces | increases
COc1ccc(-c2cc(=O)c3c(OC)cc(OC)cc3o2)cc1 [5,7,4′-trimethoxyflavone] | 519 | 118 |  |  |  |  |  |  | 
